Measurements from patent US4035507A, “Novel, transient pro-drug forms of L-DOPA to treat Parkinson's disease” (Interx Research Corporation, priority 1976, dated 1977).

How the values were obtained:
[1] = Blood concentration of L-DOPA following oral administration of L-DOPA or an L-DOPA derivative to Beagle dogs; details: three Beagle dogs; for L-DOPA at the peak / area under the curve / time for reaching the peak: L-DOPA in blood after oral administration; for [L-DOPA] (μg/ml) at time (hours) 2.0 / [L-DOPA] (μg/ml) at time (hours) 3.0 / [L-DOPA] (μg/ml) at time (hours) 0.5 / [L-DOPA] (μg/ml) at time (hours) 1.0 / [L-DOPA] (μg/ml) at time (hours) 1.5 / [L-DOPA] (μg/ml) at time (hours) 4.0 / [L-DOPA] (μg/ml) at time (hours) 6.0: blood; for [L-DOPA] (μg/ml) at time (hours) 2.0: 2.0 hours after oral administration of 0.1 of L-DOPA or equivalent amount of derivative; for [L-DOPA] (μg/ml) at time (hours) 3.0: 3.0 hours after oral administration of 0.1 of L-DOPA or equivalent amount of derivative; for [L-DOPA] (μg/ml) at time (hours) 0.5: 0.5 hours after oral administration of 0.1 of L-DOPA or equivalent amount of derivative; for [L-DOPA] (μg/ml) at time (hours) 1.0: 1.0 hours after oral administration of 0.1 of L-DOPA or equivalent amount of derivative; for [L-DOPA] (μg/ml) at time (hours) 1.5: 1.5 hours after oral administration of 0.1 of L-DOPA or equivalent amount of derivative; for [L-DOPA] (μg/ml) at time (hours) 4.0: 4.0 hours after oral administration of 0.1 of L-DOPA or equivalent amount of derivative; for [L-DOPA] (μg/ml) at time (hours) 6.0: 6.0 hours after oral administration of 0.1 of L-DOPA or equivalent amount of derivative;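 on all read-outs here: dogs of both sexes, 12 to 14 Kg body weight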
From the text: Reference to (a) refers to the values obtained from three Beagle dogs for each compound tested, the Beagle dogs being of both sexes and weighing from 12 to 14 Kg.
Reference to [L-DOPA] refers to the concentration of L-DOPA

[2] = Coutinaho, Spiegel et al. (1971); Weiss and Rossi (1963); cited from earlier work

Structure (SMILES) | L-DOPA at the peak [1] | [L-DOPA] (μg/ml) at time (hours) 2.0 [1] | [L-DOPA] (μg/ml) at time (hours) 3.0 [1] | area under the curve [1] | time for reaching the peak [1] | [L-DOPA] (μg/ml) at time (hours) 0.5 [1] | [L-DOPA] (μg/ml) at time (hours) 1.0 [1] | [L-DOPA] (μg/ml) at time (hours) 1.5 [1] | [L-DOPA] (μg/ml) at time (hours) 4.0 [1] | [L-DOPA] (μg/ml) at time (hours) 6.0 [1] | half-life of L-DOPA in the bloodstream [2]
COC(=O)[C@@H](N)Cc1ccc(OC(C)=O)c(OC(C)=O)c1.Cl [Compound (I), 3,4-diacetyloxy-L-phenylalanine-methyl ester, HCl] | 1.6 µg/mL | 0.39 µg/mL | 0.12 µg/mL |  |  |  |  |  |  |  | 
CC(=O)Oc1ccc(C[C@H](NC(=O)CN)C(=O)O)cc1OC(C)=O.Cl [Compound (III), glycyl-3,4-diacetyloxy-L-phenylalanine-hydrochloride] | 2.4 µg/mL | 0.43 µg/mL | 0.27 µg/mL | 7.25 µg/h/mL | 0.75 h | 1.34 µg/mL | 1.95 µg/mL | 1.21 µg/mL | 0.13 µg/mL | 0.02 µg/mL | 
CC(=O)Oc1ccc(C[C@H](N)C(=O)OCc2ccccc2)cc1OC(C)=O.Cl [Compound (II), 3,4-diacetyloxy-L-phenylalanine-benzyl ester hydrochloride] | 2.3 µg/mL | 0.55 µg/mL | 0.20 µg/mL | 5.96 µg/h/mL | 0.5 h | 1.71 µg/mL | 1.30 µg/mL | 1.08 µg/mL | 0.14 µg/mL | 0.05 µg/mL | 
COC(=O)[C@H](Cc1ccc(OC(C)=O)c(OC(C)=O)c1)NC(=O)CN.Cl [Compound (IV), glycyl-3,4-diacetyloxy-L-phenylalanine-methyl ester hydrochloride] | 1.7 µg/mL | 0.33 µg/mL | 0.08 µg/mL | 3.38 µg/h/mL | 0.80 h | 0.79 µg/mL | 1.17 µg/mL | 0.51 µg/mL | 0.02 µg/mL | 0 µg/mL | 
CC(=O)Oc1ccc(C[C@H](N)C(=O)NCC(=O)O)cc1OC(C)=O.Cl [Compound (V), 3,4-diacetyloxy-L-phenylalanyl-glycine hydrochloride] | 1.8 µg/mL | 0.80 µg/mL | 0.23 µg/mL | 5.30 µg/h/mL | 1.2 h | 0.26 µg/mL | 1.30 µg/mL | 1.62 µg/mL | 0.03 µg/mL | 0 µg/mL | 
N[C@@H](Cc1ccc(O)c(O)c1)C(=O)O [(0), 3,4-dihydroxy-L-phenylalanine, reference compound] | 0.9 µg/mL | 0.87 µg/mL |  | 2.6 µg/h/mL | 1.8 h | 0.14 µg/mL | 0.64 µg/mL |  | 0.22 µg/mL | 0.11 µg/mL | approximately 45 minutes
